# From the PolyMetriX glass transition set
row,SMILES,glass transition temperature
1,*CCN(Cc1ccccc1)C(=O)S* (repeat unit),32.00 °C
2,*CCCCOc1ccc(OCCCCc2nnc(-c3ccc(-c4nnc(*)o4)cc3)o2)c(C)c1 (repeat unit),129.00 °C
3,*CC(*)C(=O)Oc1ccccc1Cl (repeat unit),318.00 °C
4,*CCCCCCCCCCOC(=O)Nc1ccc(C)c(NC(=O)O*)c1 (repeat unit),18.00 °C
5,*Oc1ccc(C2(c3ccc(OC(*)=S)cc3)CCCCC2)cc1 (repeat unit),155.00 °C
6,*CC(*)(C)C(=O)OCC(F)(F)C(F)(F)C(F)(F)C(F)(F)C(F)(F)C(F)(F)C(F)(F)C(F)F (repeat unit),-15.00 °C
7,*CCOc1ccc(/C=C2\CC/C(=C\c3ccc(OCCOP(=O)(O*)OC)c(OC)c3)C2=O)cc1OC (repeat unit),99.00 °C
8,*c1cc(-c2sc(-c3cc(CCCCCCCCCC)c(*)s3)cc2CCCCCCCCCC)c2cccccc1-2 (repeat unit),22.50 °C
9,*CC(*)C(=O)OCCCCn1c2ccccc2c2ccccc21 (repeat unit),68.00 °C
10,*Oc1c(Cl)cc(C(C)(C)c2cc(Cl)c(OC(*)=O)c(Cl)c2)cc1Cl (repeat unit),227.00 °C
11,*CCN(*)C(=O)c1c(F)ccc(F)c1F (repeat unit),124.00 °C
12,*c1ccc(Oc2ccc(Oc3ccc(P(=O)(c4ccccc4)c4ccc(Oc5ccc(Oc6ccc(-c7nc8ccc(-c9ccc%10nc(*)oc%10c9)cc8o7)cc6)cc5)cc4)cc3)cc2)cc1 (repeat unit),223.00 °C
13,*c1ccc2c(c1)C(=O)N(c1cccc(P(=O)(c3ccc(Oc4ccc(C56CC7CC(CC(C7)C5)C6)cc4)cc3)c3cccc(N4C(=O)c5ccc(C(*)(C(F)(F)F)C(F)(F)F)cc5C4=O)c3)c1)C2=O (repeat unit),298.00 °C
14,*C1C(=O)OC(=O)C1C1C2CC(C(=O)OCCOCC)C(C2)C1* (repeat unit),155.00 °C
15,*CCCCCCCCCCOC(=O)c1ccccc1C(=O)O* (repeat unit),-14.00 °C
16,*c1ccc(-c2c(-c3ccc(-c4ccccc4)cc3)cc(-c3ccc(OCCCCCCCCCCOc4ccc(-c5cc(-c6ccc(-c7ccccc7)cc6)c(-c6ccc(-n7c(=O)c8cc9c(=O)n(*)c(=O)c9cc8c7=O)cc6)c(-c6ccc(-c7ccccc7)cc6)c5)cc4)cc3)cc2-c2ccc(-c3ccccc3)cc2)cc1 (repeat unit),121.00 °C

row,SMILES,glass transition temperature
1,*OP(=O)(Oc1ccccc1)Oc1c(C)cc(S(=O)(=O)c2cc(C)c(*)c(C)c2)cc1C (repeat unit),142.00 °C
2,*CC(*)C(=O)NC(C)(C)CS(=O)(=O)O (repeat unit),85.00 °C
3,*CCN(*)C(=O)Cc1ccc(C(F)(F)F)cc1 (repeat unit),75.00 °C
4,*O[Si](C)(C)O[Si](C)(C)O[Si](C)(C)OC(C)CCCCC(*)C (repeat unit),-94.00 °C
5,*CC(*)(CC(=O)Oc1ccc(OCCCCC)cc1)C(=O)Oc1ccc(OCCCCC)cc1 (repeat unit),73.50 °C
6,*Oc1cc(OC(=O)c2ccc(OCCCC)cc2)c(OC(=O)CCCCCC(*)=O)cc1OC(=O)c1ccc(OCCCC)cc1 (repeat unit),45.00 °C
7,*CC(*)OC(=O)C(F)(F)C(F)(F)C(F)(F)C(F)(F)C(F)(F)C(F)(F)C(F)(F)F (repeat unit),-10.00 °C
8,*C/C=C(\C)CS(*)(=O)=O (repeat unit),88.20 °C
9,*CCOC(=O)c1ccc(C2(C)CC(C)(C)c3ccc(C(=O)O*)cc32)cc1 (repeat unit),154.00 °C
10,*CCOP(=O)(/N=N/c1ccc(COC(=O)c2cc(C(=O)OCc3ccc(/N=N/P(=O)(O*)OC)cc3)cc(C(C)(C)C)c2)cc1)OC (repeat unit),105.00 °C
11,*/C=C(/*)C(C)(C)C (repeat unit),200.00 °C
12,*/C=C(/*)CCCOc1ccc(OC(=O)c2ccc(OCCCC)cc2)cc1 (repeat unit),36.00 °C
13,*OC(=O)c1ccc(C(=O)OC2COC3C(*)COC23)cc1 (repeat unit),255.50 °C
14,*CCCCOC(=O)NNC(=O)CCCCCCCCC(=O)NNC(=O)O* (repeat unit),56.00 °C
15,*CC(O*)C1CC(F)(F)C1(F)F (repeat unit),-25.00 °C

# Results, then the compound that gave them:
row,glass transition temperature,SMILES
1,67.00 °C,*Oc1ccc(CC(NC(=O)CCc2ccc(OC(*)=O)cc2)C(=O)OCCCC)cc1 (repeat unit)
2,250.00 °C,*C(=O)c1ccc(Oc2c(C)cc(-c3cc(C)c(Oc4ccc(C(=O)c5ccc6nc(*)ccc6c5)cc4)c(C)c3C)c(C)c2C)cc1 (repeat unit)
3,200.00 °C,*CCCCCCNC(=O)c1cc(NC(=O)c2ccc(NC(=O)C(CC(C)C)N3C(=O)c4ccccc4C3=O)cc2)cc(C(=O)N*)c1 (repeat unit)
4,144.50 °C,*c1ccc(Oc2ccc(Sc3ccc(Oc4ccc(-c5cccc(*)n5)cc4C(F)(F)F)cc3)cc2)c(C(F)(F)F)c1 (repeat unit)
5,341.50 °C,*C(=O)c1ccc2c(c1)C(=O)N(c1ccc3c(c1)Cc1cc(N4C(=O)c5ccc(*)cc5C4=O)ccc1-3)C2=O (repeat unit)
6,140.00 °C,*CCOCCOc1cccc(NC(=O)c2ccc(C(=O)Nc3cccc(O*)c3)cc2)c1 (repeat unit)
7,71.00 °C,*Oc1cc(OC(=O)c2ccc(OCC)cc2)c(OC(=O)CCCC(*)=O)cc1OC(=O)c1ccc(OCC)cc1 (repeat unit)
8,263.00 °C,*C(=O)c1ccc2c(c1)C(=O)N(c1c(C(C)C)cc(Cc3cc(C(C)C)c(N4C(=O)c5ccc(*)cc5C4=O)c(C(C)C)c3)cc1C(C)C)C2=O (repeat unit)
9,162.00 °C,*Oc1ccc(C(c2ccc(Oc3ccc(C(=O)C(=O)c4ccc(*)cc4)cc3)cc2)(C(F)(F)F)C(F)(F)F)cc1 (repeat unit)
10,57.00 °C,*CC(*)(C)C(=O)OCCCCCCOc1ccc(OC(=O)c2ccc(-c3ccc(OC)cc3)cc2)cc1 (repeat unit)
11,270.00 °C,*C(=O)c1ccc2c(c1)C(=O)N(c1ccc(N(c3ccccc3)c3ccc(N4C(=O)c5ccc(*)cc5C4=O)cc3)cc1)C2=O (repeat unit)
12,420.00 °C,*c1ccc(-c2ccc(-c3nc4ccc(-c5ccc6nc(*)c(-c7ccccc7)c(-c7ccccc7)c6c5)cc4c(-c4ccccc4)c3-c3ccccc3)cc2)cc1 (repeat unit)
13,129.00 °C,*/C=C/c1ccc2c(c1)Sc1cc(*)ccc1N2c1ccc(OCCCCCCCCCCCC)cc1 (repeat unit)
14,158.50 °C,*c1ccc(Sc2ccc(Sc3ccc(Sc4ccc(Sc5ccc(N6C(=O)c7ccc(Oc8ccc9c(c8)C(=O)N(*)C9=O)cc7C6=O)cc5)s4)s3)s2)cc1 (repeat unit)
15,75.76 °C,*CCCCC(=O)Oc1ccc(OC(=O)c2ccc3c(c2)C(=O)N(*)C3=O)c(C)c1 (repeat unit)
16,297.00 °C,*c1ccc2c(c1)C(=O)N(c1ccc(Cc3ccc(N4C(=O)c5ccc(C(*)(C(F)(F)F)C(F)(F)F)cc5C4=O)cc3)cc1)C2=O (repeat unit)

row,glass transition temperature,SMILES
1,135.00 °C,*Nc1c(-c2ccccc2)cc(-c2ccc(-c3cc(-c4ccccc4)c(NC(=O)c4ccc(C(*)=O)cc4)c(-c4ccccc4)c3)cc2)cc1-c1ccccc1 (repeat unit)
2,318.00 °C,*C(=O)c1ccc2nc(-c3ccc(-c4cnc5cc(*)ccc5n4)cc3)cnc2c1 (repeat unit)
3,216.42 °C,*/N=N/c1ccc(Nc2ccc(C(=O)c3ccc(Nc4ccc(*)cc4)cc3)cc2)cc1 (repeat unit)
4,51.50 °C,*Oc1ccc(CC(NC(=O)CCc2ccc(OC(*)=O)cc2)C(=O)OCCCCCC)cc1 (repeat unit)
5,281.00 °C,*c1ccc(Oc2ccc(S(=O)(=O)c3ccc(C)cc3)cc2)c(N2C(=O)c3ccc(-c4ccc5c(c4)C(=O)N(*)C5=O)cc3C2=O)c1 (repeat unit)
6,212.00 °C,*c1ccc(Cc2ccc(-n3nccc3-c3cccc(-c4ccnn4*)c3)cc2)cc1 (repeat unit)
7,112.00 °C,*CC(O)COc1ccc(C(C)(C)c2ccc(OCC(O)COc3ccc(NC(=O)CCCCC(=O)Nc4ccc(O*)cc4)cc3)cc2)cc1 (repeat unit)
8,190.00 °C,*c1ccc(-c2cc(CCCCCC)c(-c3ccc(-c4ccc5ccc6ccc(*)nc6c5n4)cc3)cc2CCCCCC)cc1 (repeat unit)
9,229.00 °C,*Oc1c(C)cc(C2(c3cc(C)c(Oc4ccc(C(=O)c5cccc(C(=O)c6ccc(*)cc6)c5)cc4)c(C)c3)c3ccccc3-c3ccccc32)cc1C (repeat unit)
10,299.00 °C,*c1ccc(Oc2ccc(N3C(=O)c4ccc(Oc5c(C)cc(-c6cc(C)c(Oc7ccc8c(c7)C(=O)N(*)C8=O)c(C)c6)cc5C)cc4C3=O)cc2)cc1 (repeat unit)
11,147.00 °C,*Oc1ccc(Oc2ccc(NC(=O)c3ccc(Oc4ccc(C(C)(C)c5cccc(C(C)(C)c6ccc(Oc7ccc(C(=O)Nc8ccc(*)cc8)cc7)cc6)c5)cc4)cc3)cc2)cc1 (repeat unit)
12,310.00 °C,*c1ccc(Oc2c(C)cc(Cc3cc(C)c(Oc4ccc(N5C(=O)c6ccc(-c7ccc8c(c7)C(=O)N(*)C8=O)cc6C5=O)cc4)c(C)c3)cc2C)cc1 (repeat unit)
13,308.03 °C,*C(=O)c1ccc2c(c1)C(=O)N(c1ccc(C(c3ccc(N4C(=O)c5ccc(*)cc5C4=O)cc3)(C(F)(F)F)C(F)(F)F)cc1)C2=O (repeat unit)
14,273.50 °C,*c1ccc2c(c1)C(=O)N(c1cccc(C(=O)Nc3ccc(C(c4ccc(NC(=O)c5cccc(N6C(=O)c7ccc(C(*)(C(F)(F)F)C(F)(F)F)cc7C6=O)c5)cc4)(C(F)(F)F)C(F)(F)F)cc3)c1)C2=O (repeat unit)
15,421.00 °C,*Oc1ccc(C2(c3ccc(Oc4ccc5c(=O)n6c7cc(-c8ccc9c(c8)nc8c%10ccc(*)c%11cccc(c(=O)n98)c%11%10)ccc7nc6c6cccc4c56)cc3)c3ccccc3-c3ccccc32)cc1 (repeat unit)
